Data published in ChEMBL document CHEMBL3286236, “Novel aromatic-polyamine conjugates as cholinesterase inhibitors with notable selectivity toward butyrylcholinesterase” (Bioorg Med Chem, 2014).

What was measured:
Acetylcholinesterase = Acetylcholinesterase (Electrophorus electricus, UniProt O42275)
Description: Inhibition of electric eel AChE using acetylthiocholine chloride as substrate by spectrophotometer analysis

Cholinesterase = Cholinesterase (Equus caballus, UniProt P81908)
Description: Inhibition of equine serum BChE using butyrylthiocholine chloride as substrate by spectrophotometer analysis

HepG2 = assay: cells; settings: Homo sapiens, HepG2, 48 h
[1] = Solubility of the compound; type: physicochemical

Chain of Acetylcholinesterase (O42275 whole entry): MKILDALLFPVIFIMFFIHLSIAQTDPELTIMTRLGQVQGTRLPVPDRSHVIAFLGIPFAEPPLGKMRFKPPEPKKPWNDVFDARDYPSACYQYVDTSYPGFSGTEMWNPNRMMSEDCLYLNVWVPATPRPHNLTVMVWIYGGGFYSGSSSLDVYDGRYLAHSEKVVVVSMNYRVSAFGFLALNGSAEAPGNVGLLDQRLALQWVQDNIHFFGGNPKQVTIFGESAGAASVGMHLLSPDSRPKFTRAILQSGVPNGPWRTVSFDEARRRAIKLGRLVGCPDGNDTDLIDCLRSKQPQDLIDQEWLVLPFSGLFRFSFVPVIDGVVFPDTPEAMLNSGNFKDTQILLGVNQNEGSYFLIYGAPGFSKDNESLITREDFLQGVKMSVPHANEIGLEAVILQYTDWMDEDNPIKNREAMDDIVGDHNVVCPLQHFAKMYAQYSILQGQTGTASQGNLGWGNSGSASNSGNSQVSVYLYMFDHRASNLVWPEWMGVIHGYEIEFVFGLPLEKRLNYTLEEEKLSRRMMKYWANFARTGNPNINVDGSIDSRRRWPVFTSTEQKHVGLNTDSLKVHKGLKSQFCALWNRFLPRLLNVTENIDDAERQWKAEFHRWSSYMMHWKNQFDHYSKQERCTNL
Chain of Cholinesterase (P81908 whole entry): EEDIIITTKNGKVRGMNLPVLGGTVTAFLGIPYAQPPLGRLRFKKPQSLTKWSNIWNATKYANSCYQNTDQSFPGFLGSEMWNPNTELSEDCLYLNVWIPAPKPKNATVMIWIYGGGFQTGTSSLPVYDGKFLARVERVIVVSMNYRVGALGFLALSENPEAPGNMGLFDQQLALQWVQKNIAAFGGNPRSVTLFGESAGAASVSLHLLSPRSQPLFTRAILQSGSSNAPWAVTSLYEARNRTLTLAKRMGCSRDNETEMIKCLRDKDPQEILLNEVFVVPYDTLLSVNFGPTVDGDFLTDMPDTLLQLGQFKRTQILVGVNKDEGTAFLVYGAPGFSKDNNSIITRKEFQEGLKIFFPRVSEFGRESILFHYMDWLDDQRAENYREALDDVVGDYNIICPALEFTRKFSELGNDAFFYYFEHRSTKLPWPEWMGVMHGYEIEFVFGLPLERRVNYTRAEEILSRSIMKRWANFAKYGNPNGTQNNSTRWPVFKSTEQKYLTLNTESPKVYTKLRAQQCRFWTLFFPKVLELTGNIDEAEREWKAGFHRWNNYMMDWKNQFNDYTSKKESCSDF

In the case of `O=C(CNCCCO)Nc1cccc2ccccc12`, the IC50 (Acetylcholinesterase) is reported as > 50 µM, the IC50 (Cholinesterase) is reported as > 50 µM and the IC50 (HepG2) is reported as > 100 µM.

With `CN(C)CCNCC(=O)Nc1cccc2ccccc12` the IC50 (Acetylcholinesterase) was > 50 µM, the IC50 (Cholinesterase) was 4.39 µM and the IC50 (HepG2) was > 100 µM.

With `NCCCCNCC(=O)Nc1cccc2ccccc12` the IC50 (Acetylcholinesterase) was > 50 µM, the IC50 (Cholinesterase) was 10.3 µM and the IC50 (HepG2) was > 100 µM.

In the case of `NCCCNCCCCNCC(=O)Nc1cccc2ccccc12`, the IC50 (Acetylcholinesterase) is reported as > 50 µM, the IC50 (Cholinesterase) is reported as 47.5 µM and the IC50 (HepG2) is reported as > 100 µM.

For `NCCCNCCCCNCCCNCC(=O)Nc1cccc2ccccc12`, the IC50 (Acetylcholinesterase) was > 50 µM, the IC50 (Cholinesterase) was > 50 µM and the IC50 (HepG2) was > 100 µM.

For `CCN(CC)CC(=O)Nc1c2ccccc2cc2ccccc12.Cl`, the solubility [1] was “Insoluble”.

With `Cl.O=C(CNC1CC1)Nc1c2ccccc2cc2ccccc12` the solubility [1] was “Insoluble”.

In the case of `O=C(CNCCCO)Nc1c2ccccc2cc2ccccc12`, the IC50 (Acetylcholinesterase) is reported as > 50 µM, the IC50 (Cholinesterase) is reported as 0.502 µM and the IC50 (HepG2) is reported as > 100 µM.

In the case of `CN(C)CCNCC(=O)Nc1c2ccccc2cc2ccccc12`, the IC50 (Acetylcholinesterase) is reported as > 50 µM, the IC50 (Cholinesterase) is reported as 0.161 µM and the IC50 (HepG2) is reported as > 100 µM.

With `NCCCNCC(=O)Nc1c2ccccc2cc2ccccc12` the IC50 (Acetylcholinesterase) was > 50 µM, the IC50 (Cholinesterase) was 0.28 µM and the IC50 (HepG2) was > 100 µM.

In the case of `NCCCCNCC(=O)Nc1c2ccccc2cc2ccccc12`, the IC50 (Acetylcholinesterase) is reported as > 50 µM, the IC50 (Cholinesterase) is reported as 0.016 µM and the IC50 (HepG2) is reported as > 100 µM.

With `NCCCCCCNCC(=O)Nc1c2ccccc2cc2ccccc12` the IC50 (Acetylcholinesterase) was 2.74 µM, the IC50 (Cholinesterase) was 0.023 µM and the IC50 (HepG2) was > 100 µM.

In the case of `NCCCNCCCNCC(=O)Nc1c2ccccc2cc2ccccc12`, the IC50 (Acetylcholinesterase) is reported as > 50 µM, the IC50 (Cholinesterase) is reported as 0.305 µM and the IC50 (HepG2) is reported as > 100 µM.

For `NCCCNCCCCNCC(=O)Nc1c2ccccc2cc2ccccc12`, the IC50 (Acetylcholinesterase) was 25.1 µM, the IC50 (Cholinesterase) was 0.164 µM and the IC50 (HepG2) was > 100 µM.

In the case of `NCCCNCCCCNCCCNCC(=O)Nc1c2ccccc2cc2ccccc12`, the IC50 (Acetylcholinesterase) is reported as > 50 µM, the IC50 (Cholinesterase) is reported as 0.657 µM and the IC50 (HepG2) is reported as > 100 µM.

In the case of `O=C(CNCCCO)Nc1cccc2c1C(=O)c1ccccc1C2=O`, the IC50 (Acetylcholinesterase) is reported as 11.1 µM, the IC50 (Cholinesterase) is reported as > 50 µM and the IC50 (HepG2) is reported as 23 µM.

In the case of `NCCCCNCC(=O)Nc1cccc2c1C(=O)c1ccccc1C2=O`, the IC50 (Acetylcholinesterase) is reported as 1.5 µM, the IC50 (Cholinesterase) is reported as > 50 µM and the IC50 (HepG2) is reported as 24.2 µM.

Work on `NCCCNCCCCNCC(=O)Nc1cccc2c1C(=O)c1ccccc1C2=O` yielded an IC50 (Acetylcholinesterase) of 2.63 µM, an IC50 (Cholinesterase) of 33 µM and an IC50 (HepG2) of 15.6 µM.

For `NCCCNCCCCNCCCNCC(=O)Nc1cccc2c1C(=O)c1ccccc1C2=O`, the IC50 (Acetylcholinesterase) was 7.22 µM, the IC50 (Cholinesterase) was > 50 µM and the IC50 (HepG2) was 11.5 µM.

With `O=C1c2c(O)ccc(O)c2C(=O)c2c(NCCNCCO)ccc(NCCNCCO)c21` [MITOXANTRONE] the IC50 (HepG2) was 11.1 µM.
